From patent US20080146612A1, “Novel Biaromatic Compounds, Inhibitors of the P2X7-Receptor” (ASTRAZENECA AB, priority 2005, published 2008)

Molecular target: T1, P2X7 receptor (Homo sapiens, UniProt Q99572)
T1 construct: 200 μl of a suspension of THP-1 cells; endogenous in cells; host or cells: THP-1 cells
T1 sequence (Q99572 1-595): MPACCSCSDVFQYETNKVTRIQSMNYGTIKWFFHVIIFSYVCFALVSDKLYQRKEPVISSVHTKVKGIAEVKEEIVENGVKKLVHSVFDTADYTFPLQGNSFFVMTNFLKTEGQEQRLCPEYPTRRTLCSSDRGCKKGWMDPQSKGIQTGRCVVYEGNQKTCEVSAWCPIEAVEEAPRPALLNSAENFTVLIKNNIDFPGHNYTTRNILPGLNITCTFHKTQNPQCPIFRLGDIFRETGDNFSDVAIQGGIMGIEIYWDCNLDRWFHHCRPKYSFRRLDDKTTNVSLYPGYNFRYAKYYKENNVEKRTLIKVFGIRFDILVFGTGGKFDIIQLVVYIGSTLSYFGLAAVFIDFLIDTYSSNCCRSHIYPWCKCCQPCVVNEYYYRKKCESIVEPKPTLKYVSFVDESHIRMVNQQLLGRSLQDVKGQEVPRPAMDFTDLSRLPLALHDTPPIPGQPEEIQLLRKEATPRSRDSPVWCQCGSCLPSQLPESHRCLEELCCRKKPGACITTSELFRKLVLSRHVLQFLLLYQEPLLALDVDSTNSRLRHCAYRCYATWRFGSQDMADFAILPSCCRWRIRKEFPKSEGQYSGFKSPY
Assay: P2X7 receptor antagonist test: bbATP-induced ethidium bromide fluorescence in THP-1 cells
Format: cell-based
Conditions: negative logarithm of the concentration of test compound necessary to reduce the bbATP agonist activity by 50%, 10^-5M bbATP solution, 37° C. for one hour
Text: Certain compounds such as benzoylbenzoyl adenosine triphosphate (bbATP) are known to be agonists of the P2X7 receptor, effecting the formation of pores in the plasma membrane (Drug Development Research (1996), 37(3), p. 126). Consequently, when the receptor is activated using bbATP in the presence of ethidium bromide (a fluorescent DNA probe), an increase in the fluorescence of intracellular DNA-bound ethidium bromide is observed. The increase in fluorescence can be used as a measure of P2X7 receptor activation and therefore to quantif the effect of a compound on the P2X7 receptor.
In this manner, each of the title compounds of the Examples was tested for antagonist activity at the P2X7 receptor. Thus, the test was performed in 96-well flat bottomed microtitre plates, the wells being filled with 250 μl of test solution comprising 200 μl of a suspension of THP-1 cells (2.5×10^6 cells/ml) containing 10^−4M ethidium bromide, 25 μl of a high potassium buffer solution containing 10^−5M bbATP, and 25 μl of the high potassium buffer solution containing concentrations of test compound typically from 30 μM-0.001 μM. The plate was covered with a plastics sheet and incubated at 37° C. for one hour. The plate was then read in a Perkin-Elmer fluorescent plate reader, excitation 520 nm, emission 595 nm, slit widths: Ex 15 nm, Em 20 nm. […]

Row | SMILES | IC50 [nM]
1 | O=C(NCC1(O)CCCCCC1)c1cc(-c2ccccc2C(=O)O)ccc1Cl [Example 2, 4′-Chloro-3′-[[[(1-hydroxycycloheptyl)methyl]amino]carbonyl]-[1,1′-biphenyl]-2-carboxylic acid] | 63.1
2 | O=C(NCC1CCCCCC1)c1cc(-c2cccnc2N2CCC(C(=O)O)CC2)ccc1Cl [Example 26, 1-[3-[4-Chloro-3-[[(cycloheptylmethyl)amino]carbonyl]phenyl]-2-pyridinyl]-4-piperidinecarboxylic acid] | 100

Test system: not given
Assay: not given
Conditions: not given

Row | SMILES | melting point
3 | O=C(NC[C@@H]1CCCCC[C@@H]1O)c1cc(-c2ccccc2C(=O)O)ccc1Cl (relative stereo) [Example 8, 4′-Chloro-3′-[[[[cis-2-hydroxycycloheptyl]methyl]amino]carbonyl]-[1,1′-biphenyl]-2-carboxylic acid] | 193 to 195 °C
4 | O=C(NCCc1ccccc1Cl)c1cc(-c2ccccc2C(=O)O)ccc1Cl [Example 1, 4′-Chloro-3′-[[[2-(2-chlorophenyl)ethyl]amino]carbonyl]-[1,1′-biphenyl]-2-carboxylic acid] | 136 to 140 °C (dec.)
5 | O=C(NCC1CCCCC1)c1cc(-c2ccccc2C(=O)O)ccc1Cl [Example 3, 4′-Chloro-3′-[[(cyclohexylmethyl)amino]carbonyl]-[1,1′-biphenyl]-2-carboxylic acid] | 212 to 214 °C
6 | C[C@H](CNC(=O)c1cc(-c2ccccc2C(=O)O)ccc1Cl)c1ccccc1 [Example 4, 4′-Chloro-3′-[[[(2S)-2-phenylpropyl]amino]carbonyl]-[1,1′-biphenyl]-2-carboxylic acid] | 160 to 162 °C
7 | CC1(C)[C@H]2CC[C@@H](CNC(=O)c3cc(-c4ccccc4C(=O)O)ccc3Cl)[C@@H]1C2 [Example 5, 4′-Chloro-3′-[[[[(1S,2R,5S)-6,6-dimethylbicyclo[3.1.1]hept-2-yl]methyl]amino]car-bonyl]-[1,1′-biphenyl]-2-carboxylic acid] | 170 to 172 °C
8 | O=C(NCC1CCCCCC1)c1cc(-c2ccccc2C(=O)O)ccc1Cl [Example 6, 4′-Chloro-3′-[[(cycloheptylmethyl)amino]carbonyl]-[1,1′-biphenyl]-2-carboxylic acid] | 201 to 203 °C
9 | O=C(NCC1(O)CCCCC1)c1cc(-c2ccccc2C(=O)O)ccc1Cl [Example 7, 4′-Chloro-3′-[[[(1-hydroxycyclohexyl)methyl]amino]carbonyl]-[1,1′-biphenyl]-2-carboxylic acid] | 202 to 204 °C
10 | O=C(NCCC1CCCCC1)c1cc(-c2ccccc2C(=O)O)ccc1Cl [Example 9, 4′-Chloro-3′-[[(2-cyclohexylethyl)amino]carbonyl]-[1,1′-biphenyl]-2-carboxylic acid] | 191 to 193 °C
11 | O=C(NCC1CCCCCC1)c1cc(-c2cccnc2C(=O)O)ccc1Cl [Example 10, 3-[4-Chloro-3-[[(cycloheptylmethyl)amino]carbonyl]phenyl]-2-pyridinecarboxylic acid] | 166 to 168 °C

Next, values leading:

Row | melting point | SMILES
12 | 104 to 107 °C | O=C(NCCC1CCCCC1)c1cc(-c2cccnc2C(=O)O)ccc1Cl [Example 11, 3-[4-Chloro-3-[[(2-cyclohexylethyl)amino]carbonyl]phenyl]-2-pyridinecarboxylic acid]
13 | 139 to 141 °C | C[C@@H](NC(=O)c1cc(-c2ccccc2C(=O)O)ccc1Cl)C1CCCCC1 [Example 12, 4′-Chloro-3′-[[[(1R)-1-cyclohexylethyl]amino]carbonyl]-[1,1′-biphenyl]-2-carboxylic acid]
14 | 180 to 183 °C | CC1(CNC(=O)c2cc(-c3ccccc3C(=O)O)ccc2Cl)CCCCCC1 [Example 13, 4′-Chloro-3′-[[[(1-methylcycloheptyl)methyl]amino]carbonyl]-[1,1′-biphenyl]-2-carboxylic acid]
15 | 175 to 177 °C | O=C(NCC1(CO)CCCCCC1)c1cc(-c2ccccc2C(=O)O)ccc1Cl [Example 14, 4′-Chloro-3′-[[[[1-(hydroxymethyl)cycloheptyl]methyl]amino]carbonyl]-[1,1′-biphenyl]-2-carboxylic acid]
16 | 188 to 189 °C | Cc1ccc(-c2ccccc2C(=O)O)cc1C(=O)NCC1CCCCCC1 [Example 16, 3′-[[(Cycloheptylmethyl)amino]carbonyl]-4′-methyl-[1,1′-biphenyl]-2-carboxylic acid]
17 | 177 to 178 °C | Cc1ccc(-c2ccc(Cl)c(C(=O)O)n2)cc1C(=O)NCC1CCCCCC1 [Example 18, 3-Chloro-6-[3-[[(cycloheptylmethyl)amino]carbonyl]-4-methylphenyl]-2-pyridinecarboxylic acid]
18 | 208 to 211 °C | O=C(NCCC1CCCCC1)c1cc(-c2ncc(Cl)cc2C(=O)O)ccc1Cl [Example 19, 5-Chloro-2-[4-chloro-3-[[(2-cyclohexylethyl)amino]carbonyl]phenyl]-3-pyridinecarboxylic acid]
19 | 176 to 179 °C | O=C(NCC1CCCCCC1)c1cc(-c2ncc(Cl)cc2C(=O)O)ccc1Cl [Example 20, 5-Chloro-2-[4-chloro-3-[[(cycloheptylmethyl)amino]carbonyl]phenyl]-3-pyridinecarboxylic acid]
20 | 201 to 204 °C | O=C(NCC1(O)CCCCCC1)c1cc(-c2ncc(Cl)cc2C(=O)O)ccc1Cl [Example 21, 5-Chloro-2-[4-chloro-3-[[[(1-hydroxycycloheptyl)methyl]amino]carbonyl]phenyl]-3-pyridinecarboxylic acid]
21 | 189 to 190 °C | O=C(NCCC1CCCCC1)c1cc(-c2ccc(Cl)c(C(=O)O)n2)ccc1Cl [Example 22, 3-Chloro-6-[4-chloro-3-[[(2-cyclohexylethyl)amino]carbonyl]phenyl]-2-pyridinecarboxylic acid]
22 | 189 to 190 °C | O=C(NCC1CCCCCC1)c1cc(-c2ccc(Cl)c(C(=O)O)n2)ccc1Cl [Example 23, 3-Chloro-6-[4-chloro-3-[[(cycloheptylmethyl)amino]carbonyl]phenyl]-2-pyridinecarboxylic acid]
23 | 146 to 149 °C | O=C(NCC1(O)CCCCCC1)c1cc(-c2ccc(Cl)c(C(=O)O)n2)ccc1Cl [Example 24, 3-Chloro-6-[4-chloro-3-[[[(1-hydroxycycloheptyl)methyl]amino]carbonyl]phenyl]-2-pyridinecarboxylic acid]
24 | 116 to 120 °C | O=C(NCCC1CCCCC1)c1cc(-c2cccnc2N2CCC(C(=O)O)CC2)ccc1Cl [Example 25, 1-[3-[4-Chloro-3-[[(2-cyclohexylethyl)amino]carbonyl]phenyl]-2-pyridinyl]-4-piperidinecarboxylic acid]
25 | 117 to 119 °C | O=C(NCC1(O)CCCCCC1)c1cc(-c2cccnc2N2CCC(C(=O)O)CC2)ccc1Cl [Example 27, 1-[3-[4-Chloro-3-[[[(1-hydroxycycloheptyl)methyl]amino]carbonyl]phenyl]-2-pyridinyl]-4-piperidinecarboxylic acid]
